Measurements published in the supplement of paper PMC11451515.

Test system: NOMO1
Assay: cell viability relative to DMSO control; higher = less cytotoxic
Details: 48 h
Summary of the method: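 Viability values are per-plate percentages of DMSO wells, with background from cell-free wells. Library compounds in DMSO were pin-dosed, in an 11-point threefold series from 47 μM to 0.79 nM, onto NOMO1 or SEM (500 cells/well) or P12-Ichikawa (1000 cells/well) leukemia cells in 1536-well plates (5 μl). Those cells had been adapted for at least four passages in each medium, and CellTiter-Glo One luminescence was read after 48 h at 37°C.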

[1] = RPMI 5 mM glucose + 10% FBS, 0.000781 µM
[2] = RPMI 5 mM glucose + 10% FBS, 0.00234 µM
[3] = RPMI 5 mM glucose + 10% FBS, 0.00702 µM
[4] = RPMI 5 mM glucose + 10% FBS, 0.0211 µM
[5] = RPMI 5 mM glucose + 10% FBS, 0.0632 µM
[6] = RPMI 5 mM glucose + 10% FBS, 0.19 µM
[7] = RPMI 5 mM glucose + 10% FBS, 0.569 µM
[8] = RPMI 5 mM glucose + 10% FBS, 1.71 µM
[9] = RPMI 5 mM glucose + 10% FBS, 5.12 µM
[10] = RPMI 5 mM glucose + 10% FBS, 15.4 µM
[11] = RPMI 5 mM glucose + 10% FBS, 46.1 µM
[12] = RPMI 5 mM glucose + 10% dialyzed FBS, 0.000781 µM
[13] = RPMI 5 mM glucose + 10% dialyzed FBS, 0.00234 µM
[14] = RPMI 5 mM glucose + 10% dialyzed FBS, 0.00702 µM
[15] = RPMI 5 mM glucose + 10% dialyzed FBS, 0.0211 µM
[16] = RPMI 5 mM glucose + 10% dialyzed FBS, 0.0632 µM
[17] = RPMI 5 mM glucose + 10% dialyzed FBS, 0.19 µM
[18] = RPMI 5 mM glucose + 10% dialyzed FBS, 0.569 µM
[19] = RPMI 5 mM glucose + 10% dialyzed FBS, 1.71 µM
[20] = RPMI 5 mM glucose + 10% dialyzed FBS, 5.12 µM
[21] = RPMI 5 mM glucose + 10% dialyzed FBS, 15.4 µM
[22] = RPMI 5 mM glucose + 10% dialyzed FBS, 46.1 µM
[23] = HPLM + 10% dialyzed FBS, 0.000781 µM
[24] = HPLM + 10% dialyzed FBS, 0.00234 µM
[25] = HPLM + 10% dialyzed FBS, 0.00702 µM
[26] = HPLM + 10% dialyzed FBS, 0.0211 µM
[27] = HPLM + 10% dialyzed FBS, 0.0632 µM
[28] = HPLM + 10% dialyzed FBS, 0.19 µM
[29] = HPLM + 10% dialyzed FBS, 0.569 µM
[30] = HPLM + 10% dialyzed FBS, 1.71 µM
[31] = HPLM + 10% dialyzed FBS, 5.12 µM
[32] = HPLM + 10% dialyzed FBS, 15.4 µM
[33] = HPLM + 10% dialyzed FBS, 46.1 µM

Structure (SMILES)	cell viability [1]	cell viability [2]	cell viability [3]	cell viability [4]	cell viability [5]	cell viability [6]	cell viability [7]	cell viability [8]	cell viability [9]	cell viability [10]	cell viability [11]	cell viability [12]	cell viability [13]	cell viability [14]	cell viability [15]	cell viability [16]	cell viability [17]	cell viability [18]	cell viability [19]	cell viability [20]	cell viability [21]	cell viability [22]	cell viability [23]	cell viability [24]	cell viability [25]	cell viability [26]	cell viability [27]	cell viability [28]	cell viability [29]	cell viability [30]	cell viability [31]	cell viability [32]	cell viability [33]
COC(=O)Nc1nc2cc(Sc3ccccc3)ccc2[nH]1	114%	122%	124%	113%	120%	107%	115%	111%	22.8%	42.9%	36.8%	122%	111%	122%	115%	140%	119%	119%	115%	32.6%	35.1%	29.7%											
COc1cc([C@@H]2c3cc4c(cc3[C@@H](O[C@@H]3O[C@@H]5CO[C@@H](C)O[C@H]5[C@H](O)[C@H]3O)[C@H]3COC(=O)[C@H]23)OCO4)cc(OC)c1O	95.4%	84.9%	89.9%	85.9%	79.1%	81.1%	91.4%	63%	10.3%	11.7%	15.3%	84.7%	76.7%	80.7%	85.9%	81.7%	82.1%	87.9%	73.7%	15.6%	13.1%	18.9%	93.9%	98.1%	83.4%	103%	87.5%	99.9%	96.3%	60.3%	19.3%	18.1%	21.6%
CC(=O)[C@H]1CC[C@H]2[C@@H]3C/C=C4/C[C@@H](O)CC[C@]4(C)[C@H]3CC[C@]12C	121%	113%	119%	111%	116%	117%	109%	121%	110%	111%	119%	121%	118%	139%	128%	129%	114%	132%	121%	118%	116%	97.7%	129%	121%	125%	115%	131%	129%	138%	123%	119%	104%	108%
COc1cc([S+](C)(=O)[O-])ccc1Nc1nc2ccc(-c3ccc(NC(=O)[C@H](C)c4ccc(F)cc4)cc3)cn2n1	106%	129%	122%	131%	134%	123%	124%	92.4%	101%	94.9%	97.2%	114%	117%	123%	130%	120%	136%	129%	92.7%	96.3%	96.1%	88.8%	104%	120%	139%	146%	157%	137%	139%	99.3%	109%	101%	100%
CNC(=O)c1cc(COc2nnc(Nc3ccc(Cl)cc3)c3ccoc23)ccn1	114%	123%	106%	112%	110%	111%	109%	104%	92.6%	87.4%	87.5%	104%	111%	107%	101%	109%	102%	92.7%	96.4%	98.6%	101%	87.3%	110%	110%	107%	103%	114%	131%	114%	107%	98.2%	91.1%	65.7%
NC(=O)Cc1cccc(C(=O)c2ccccc2)c1N	92.3%	101%	88.4%	91.2%	96.8%	88%	84.7%	98.8%	85.2%	93.7%	81.9%	97.4%	87.3%	96.1%	82.7%	101%	98.3%	91.6%	86.9%	95.6%	77.8%	88.1%	79.5%	98.2%	122%	95.4%	108%	109%	110%	102%	108%	96.8%	102%
CN1C(=O)\C(=C/C2=C1N=C(NC3CCOCC3)N=C2)OC4=C(F)C=C(F)C=C4	95.4%	83.2%	88.4%	90.6%	94.1%	87.2%	87.2%	95.2%	79.2%	84%	23.3%	86.7%	97.1%	104%	89.2%	83.5%	87.1%	95.5%	91.4%	76.7%	86.3%	26.4%	105%	107%	105%	101%	119%	100%	91%	96.4%	58.2%	89.2%	16.4%
CN1CCN(CC1)C/2=N/C3=CC=CC=C3NC4=C2C=C(C)S4	89.8%	85.5%	80.5%	88.5%	100%	82.4%	96.7%	83.9%	86.1%	82%	97.1%	86.1%	72.9%	78.6%	85%	88.9%	86.9%	99.3%	89.4%	76.2%	69.7%	81.2%	94.5%	101%	102%	109%	110%	96.1%	93.5%	86.3%	86.6%	75.5%	77.1%
CN1CCC(=C2c3ccccc3CCc3sccc32)CC1	106%	109%	104%	106%	125%	105%	114%	107%	102%	108%	109%	100%	108%	113%	112%	112%	110%	116%	108%	106%	106%	65.7%	88.8%	107%	111%	101%	126%	118%	103%	104%	121%	103%	44.5%
COC(=O)[C@@H]1CC2=CC(=O)CC[C@]2(C)[C@@]23O[C@@H]2C[C@@]2(C)[C@@H](CC[C@@]24CCC(=O)O4)[C@H]13	95.3%	91.4%	112%	106%	104%	110%	116%	105%	109%	102%	112%	105%	121%	113%	121%	110%	108%	123%	141%	125%	116%	120%	93.6%	115%	107%	121%	116%	133%	122%	136%	124%	123%	119%
c1cc(N[C@@H]2CCNC2)nc(-c2cnc3ccc(-c4cn[nH]c4)cn23)c1	116%	126%	124%	133%	137%	125%	120%	125%	128%	111%	100%												133%	119%	124%	137%	134%	139%	127%	128%	132%	102%	91.9%
Oc1ccc(C2CNCCc3c2cc(O)c(O)c3Cl)cc1 (centres undefined)	86%	90.1%	81.7%	96.5%	93.6%	80.7%	90.7%	96.3%	85.8%	90.3%	87.4%	84.1%	95.9%	98.2%	95.6%	99.9%	94.3%	95.7%	93.4%	95.2%	101%	88.5%	91.8%	106%	93.7%	106%	107%	101%	85.3%	106%	115%	103%	115%
CCCC[N+]1(C)[C@@H]2CC(OC(=O)[C@H](CO)c3ccccc3)C[C@H]1[C@@H]1O[C@@H]12 (some centres undefined)	106%	107%	118%	120%	125%	102%	114%	97.9%	93.6%	77.7%	15.6%	120%	124%	136%	127%	129%	118%	121%	122%	117%	105%	22.7%											
NC(=O)c1c(OCc2c(F)cc(Br)cc2F)nsc1NC(=O)NCCCCN1CCCC1	123%	116%	115%	116%	112%	105%	111%	103%	103%	66.6%	85.7%												89.9%	108%	91.4%	82.3%	76.8%	87.6%	107%	79.8%	67.6%	18.5%	21.5%
O=C(O)CCc1ccc(NCc2cccc(Oc3ccccc3)c2)cc1	85.8%	99.2%	108%	102%	119%	111%	105%	102%	109%	103%	123%	82.6%	103%	95.1%	92.5%	105%	105%	103%	98.6%	111%	119%	104%	97.4%	105%	134%	132%	119%	96.9%	114%	111%	122%	117%	141%
CC(=O)OCC(CCn1cnc2cnc(N)nc21)COC(C)=O	91.7%	101%	92.8%	93.1%	93.9%	106%	98.9%	108%	104%	94.2%	92.7%	92.4%	91.3%	104%	93%	89.9%	112%	100%	101%	99.9%	108%	90.3%	80%	105%	89.9%	98.4%	102%	113%	102%	120%	112%	103%	101%
